Values quoted from earlier work, collected in US8815303B2, “Multifunctional compositions having combined insecticidal, miticidal and fungicidal activity” (priority 2004, dated 2014).
Read-outs that look alike come from different tables or passages of the source.

Assays:
[1] = tested on: powdery mildew and/or blackspot; conditions: for management of powdery mildew and/or blackspot: weekly sprays of 0.5% (w/w) aqueous solution
rose powdery mildew = conditions: intact plants, after one adaxial foliar spray application
[2] = 0.5% concentration (the more effective dose)

Q: For `O=C([O-])O.[Na+]` [sodium bicarbonate], which powdery mildew severity ([1]; 0.25% concentration) is on record?
A: significantly reduce

Q: And the powdery mildew severity [1, 2]?
A: significantly reduce

Q: What about the “management of powdery mildew and/or blackspot” value [1] of the same compound?
A: significantly managed

Q: Which powdery mildew severity ([1]; 0.25% concentration) does the source give for `O=C([O-])O.[K+]` [potassium bicarbonate] here?
A: significantly reduce

Q: What about the powdery mildew severity [1, 2] of the same compound?
A: significantly reduce

Q: What about the “management of powdery mildew and/or blackspot” value [1] of the same compound?
A: significantly managed

Q: What about the host epidermal layers (rose powdery mildew) of the same compound?
A: recover completely from infection

Q: And the superficial pathogen structures (rose powdery mildew)?
A: eradicated
